{
  "source": "patent US20100029778A1",
  "about": "“HAIR AND/OR SCALP TREATMENT COMPOSITIONS” (Unilever Home & Personal Care USA, Division of Conopco, Inc., priority 2001, published 2010)",
  "key": {"histamine-induced itch [1]": {"tested_on": "histamine-induced itch", "experiment": "Histamine-induced itch, topically applied Aqueous Cream BP, histamine iontophoresis, VAS", "details": "for Itch score (area under the curve): volar forearm skin, after 4 hours, VAS area under curve 0 to 5 minutes; for Itch score % of control: control = vehicle alone"}, "histamine-induced itch [2]": {"tested_on": "histamine-induced itch", "experiment": "Histamine-induced itch, test material topically applied in ethanol:Vaseline Intensive Care Lotion 1:1", "type": "in vivo, human", "details": "for Itch score % of control: 50 mM in ethanol mixed 1:1 with VICL, control = ethanol:VICL vehicle alone of the same run; for Effect on histamine-induced itch (in words): topically applied in the presence of a lotion"}, "histamine-induced itch [3]": {"tested_on": "histamine-induced itch", "experiment": "Histamine-induced itch, test material applied under water-impermeable patch for 24 hours before histamine challenge", "details": "applied by patch"}, "[4]": {"details": "HU-210 0.05% (w/v) in Aqueous Cream BP"}, "[5]": {"details": "HU-210 0.5% (w/v) in Aqueous Cream BP"}},
  "note": "Several values for one entry are separate records, joined by “and”; a condition that tells them apart may be missing. Equal values may be shown once.",
  "data": [
    {"compound": "CCCCCCC(C)(C)c1cc(O)c2c(c1)OC(C)(C)[C@@H]1CC=C(CO)C[C@@H]21", "note": "[HU-210, (6aR)-trans-3-(1,1-Dimethylheptyl)-6a,7,10,10a-tetrahydro-1-hydroxy-6,6-dimethyl-6H-dibenzo[b,d]pyran-9-methanol]", "values": [
      {"measurement": "Itch score (area under the curve)", "setting": "histamine-induced itch [1]; [4]", "value": 101},
      {"measurement": "Itch score % of control", "setting": "histamine-induced itch [1]; [4]", "value": 7.3, "unit": "%"},
      {"measurement": "Itch score (area under the curve)", "setting": "histamine-induced itch [1]; [5]", "value": 119},
      {"measurement": "Itch score % of control", "setting": "histamine-induced itch [1]; [5]", "value": 6.2, "unit": "%"},
      {"measurement": "Effect on histamine-induced itch (in words)", "setting": "histamine-induced itch [1]; topically applied in cream", "value": "capable of reducing histamine-induced itch"}
    ]},
    {"compound": "CCCCC/C=C\\C/C=C\\CCCCCCCC(=O)NCCO", "note": "[LAMEA, linoleoylethanolamine]", "values": [
      {"measurement": "Itch score % of control", "setting": "histamine-induced itch [2]", "value": "169% and 108% and 100%"},
      {"measurement": "Effect on histamine-induced itch (in words)", "setting": "histamine-induced itch [2]", "value": "unable to demonstrate any anti-pruritic action or even appeared to exacerbate the itch response"}
    ]},
    {"compound": "CCCCCCCCCCCCCCCC(=O)NCCO", "note": "[PEA, Palmitoylethanolamide]", "values": [
      {"measurement": "Effect on histamine-induced itch (in words)", "setting": "histamine-induced itch [2]", "value": "can inhibit histamine-induced itch"},
      {"measurement": "Effect on histamine-induced itch (in words)", "setting": "histamine-induced itch [3]", "value": "can inhibit histamine-induced itch"}
    ]},
    {"compound": "CCCCCCCCCCCCCCCCCC(=O)NCCO", "note": "[SEA]", "values": [
      {"measurement": "Itch score % of control", "setting": "histamine-induced itch [2]", "value": "231% and 260% and 190%"},
      {"measurement": "Effect on histamine-induced itch (in words)", "setting": "histamine-induced itch [2]", "value": "unable to demonstrate any anti-pruritic action or even appeared to exacerbate the itch response"}
    ]}
  ]
}
